{"source": "paper PMC5430962", "about": "“Retro-inverso Urokinase Receptor Antagonists for the Treatment of Metastatic Sarcomas” (Scientific Reports, 2017)", "key": {"CREB(S133)": {"tested_on": "CREB(S133)", "assay": "Phospho-kinase array, RBL-2H3/ETFR cells", "type": "cell-based, rat", "conditions": "10 nM fMLF plus 10 nM peptide, 10 min", "method": "(§1) RBL-2H3/ETFR grown to semi-confluence, were exposed to DMEM alone, 10 nM fMLF with/without 10 nM RI-3 at 37 °C in humidified air with 5% CO2. At the indicated times, cells were lysed in RIPA buffer and cell lysate protein content was measured by a colorimetric assay. Western blot analysis of AKT phosphorylation was performed as previously described using anti-phospho-Akt (Ser473) (pAKT) Ab (Cell Signaling) and anti-Akt mAb (R&D System). The effects of fMLF with/without 10 nM RI-3 were analyzed at the level of global kinase phosphorylation, using the dot-blot Proteome Profiler^TM Array Human PhosphoKinase Array Kit (R&D Systems), according to manufacturer’s instructions. Briefly, 300 µg of protein were applied on each membrane and the signals were detected as described for Western blot. The pixel density of each spot was measured using NIH Image 1.62 software. The intensity of positive control spots was used to normalize results between the four membranes. The intensity for each spot was then averaged over the duplicate spots."}, "FAK(Y397)": {"tested_on": "FAK(Y397)", "assay": "Phospho-kinase array, RBL-2H3/ETFR cells", "type": "cell-based, rat", "conditions": "10 nM fMLF plus 10 nM peptide, 10 min", "method": "as §1"}, "p38α(T180/Y182)": {"tested_on": "p38α(T180/Y182)", "assay": "Phospho-kinase array, RBL-2H3/ETFR cells", "type": "cell-based, rat", "conditions": "10 nM fMLF plus 10 nM peptide, 10 min", "method": "as §1"}, "FPR1": {"molecular_target": "T1, FPR1 (Homo sapiens, UniProt P21462)", "T1 construct": "expressed in transfected cells; host or cells: rat basophilic leukaemia RBL-2H3/ETFR cells (gift of F. Blasi)", "T1 sequence (P21462 1-350)": "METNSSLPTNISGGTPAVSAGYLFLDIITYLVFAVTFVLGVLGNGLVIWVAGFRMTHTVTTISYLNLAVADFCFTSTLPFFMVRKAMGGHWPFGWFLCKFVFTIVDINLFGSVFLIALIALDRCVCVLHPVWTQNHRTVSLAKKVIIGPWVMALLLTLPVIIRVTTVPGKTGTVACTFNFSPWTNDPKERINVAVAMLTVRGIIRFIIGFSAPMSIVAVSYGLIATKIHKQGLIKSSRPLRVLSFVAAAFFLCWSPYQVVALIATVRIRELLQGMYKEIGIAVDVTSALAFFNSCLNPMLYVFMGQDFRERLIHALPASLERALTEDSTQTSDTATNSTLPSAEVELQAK", "assay": "Agonist-dependent FPR1 internalization, fluorescence microscopy in RBL-2H3/ETFR cells", "type": "cell-based", "conditions": "100 nM peptide 30 min at 37 °C, then 10 nM FITC-fMLF 30 min at 37 °C; confocal microscopy", "method": "Cells grown on glass slides to semi-confluence were exposed to diluents or the indicated unlabeled peptides for 30 min at 37 °C, then to 10 nM FITC-fMLF in PBS for additional 30 min at 37 °C and extensively rinsed with PBS. To visualize the cytoskeleton, the cells were fixed with 2.5% formaldehyde, permeabilized with 0.1% Triton X-100 for 10 min at 4 °C, and incubated with 0.1 µg/mL rhodamine-conjugated phalloidin (Sigma-Aldrich) for 40 min. In all cases, coverslips were mounted using 20% (w/v) Mowiol, visualized with a Zeiss 510META-LSM microscope (Carl Zeiss), and z-series were collected at 0.20 µm intervals."}, "HT1080 cells": {"tested_on": "HT1080 cells", "assay": "HT1080 matrigel invasion toward 10% FBS in Boyden chambers", "type": "cell-based, human", "conditions": "10 nM peptide plus 10% FBS, 6 hr, means of three independent experiments in triplicate", "method": "Cell migration in Boyden chambers was carried out for 4 hr at 37 °C in humidified air with 5% CO2, as described. Briefly, cell suspension (1 × 10^5 viable cells/mL serum free medium) was seeded in each upper chamber. Lower chambers were filled with DMEM alone, DMEM containing RI peptides, 10 nM fMLF, or 10% FBS with/without RI peptides. The two compartments were separated by 8 μm pore size polycarbonate filters (Neuroprobe) coated with 2.5 µg/mL vitronectin (Corning). For the invasion assays, 8 μm pore size filters were coated with 50 μg/filter matrigel (BD Biosciences) as previously described[40] and cells (3 × 10^4 viable cells/well) were allowed to invade matrigel for 6 hr at 37 °C, 5% CO2. In all cases, at the end of the assay, cells on the lower filter surface were fixed with ethanol, stained with haematoxylin and 10 random fields/filter were counted at 200× magnification. Each experiment was performed three times in triplicate."}, "Sarc cells": {"tested_on": "Sarc cells", "assay": "Growth, vascularization and circulating tumor cells of subcutaneous Sarc tumors in nude mice", "type": "in vivo, Foxn1nu/nu female nude mice", "conditions": "6 mg/Kg i.p. every day for 10 days", "method": "To evaluate the effect of RI-3 on tumor growth and vascularization, Sarc cells were injected, as a single-cell suspension (1 × 10^6 cells in 100 µl of sterile PBS, 97% viability), subcutaneously in the flanks of sixteen six-eight weeks old, Foxn1nu/nu female nude mice (Harlan). Animals were randomized into two 8-mice groups with the treatment group receiving 6 mg/kg RI-3 by intra-peritoneal injection every 24 hr, and the control group receiving an equivalent injected volume of vehicle (PBS) only. Time-dependent average weight was monitored every two days. The length and the width of tumors were measured at different time points with a calliper and volumes were calculated using the formula: ½ × (width)[2] × length (mm). After 10 days, blood samples (at least 500 µL/mouse) from the retro-orbital venous plexus of mice anesthetized with 1% isoflurane were collected using a heparinized capillary tube and processed for determination of the Circulating Tumor Cells (CTCs). Then, the animals were sacrificed, the excised tumors were fixed in buffered formalin and processed for paraffin sectioning. Tumor vascularization was assessed by counting vascular channels harbouring red blood cells on CD31 immuno-stained sections in 5 randomly chosen fields per section, in at least two sections per tumor at x 200 as described. Two additional experiments were carried out with the same experimental design by injecting GFP-tagged Sarc cells (1 × 10^6 cells/mouse) subcutaneously in the flanks of twenty-five six-eight weeks old, Foxn1nu/nu female nude mice (Harlan). Animals were treated with 6 mg/kg RI-3, 6 mg/kg RERF or vehicle by intra-peritoneal injection every 24 hr for 10 or 12 days. Tumor growth and the appearance of positive tumor lesions near tumors and in lungs were monitored as brightly visualized by GFP fluorescence with a MacroFluo fluorescence stereomicroscope (Leica). We searched for the presence of GFP-positive nodules on the entire surface of freshly isolated lungs. Lungs were also sliced at approximately 3-mm thickness to examine the parenchyma in depth, and the positive nodules were acquired at higher magnification.\nTo quantify CTCs, DNA from nucleated cells of murine blood samples (500 μl/mouse) was extracted using the QIAamp DNA Mini Kit (Qiagen), according to the manufacturer’s protocol. Quantitative RT-PCR (7900 HT Fast Real-Time PCR System, Applied Biosystems) was performed using 18 ng DNA and the SYBR Select Master Mix (Applied Biosystems) as described. Primers to human Alu-sequences [FW 5′-[…]-3′/RV 5′-CCCAGGCTGGAGTGCAGT-3′] were employed to a final concentration of 0.5 μM. The number of CTCs was calculated by comparing the obtained Ct with a standard amplification curve generated in spiking experiments (1 to 50 cells were collected by pipetting under microscopic control) which were included in every run. DNA from murine blood was included as a negative control."}}, "note": "[ ]: non-standard residue; d: D form. Aib = CC(C)(N)C(=O)O", "data": [{"substance": "Ac-[dY][dR][Aib][dR]-NH2 (SMILES CC(=O)N[C@H](Cc1ccc(O)cc1)C(=O)N[C@H](CCCNC(=N)N)C(=O)NC(C)(C)C(=O)N[C@H](CCCNC(=N)N)C(N)=O) [RI-3]", "values": [{"measurement": "reduction in fMLF-dependent phosphorylation of CREB(S133)", "setting": "CREB(S133)", "value": 42, "unit": "%"}, {"measurement": "reduction in fMLF-dependent phosphorylation of FAK(Y397)", "setting": "FAK(Y397)", "value": 30, "unit": "%"}, {"measurement": "reduction in fMLF-dependent phosphorylation of p38α(T180/Y182)", "setting": "p38α(T180/Y182)", "value": 21, "unit": "%"}, {"measurement": "effect on agonist-dependent FPR1 internalization", "setting": "FPR1", "value": "paucity of FPR1 internalization"}, {"measurement": "reduction of the extent of cell invasion (matrigel)", "setting": "HT1080 cells", "value": 51, "unit": "%"}, {"measurement": "intra-tumoral microvessel density (CD31) vs vehicle-treated mice", "setting": "Sarc cells", "value": "a reduced microvessel density"}, {"measurement": "treated mice in which no CTCs were detected", "setting": "Sarc cells", "value": "4/8"}, {"measurement": "body weight vs vehicle-treated mice", "setting": "Sarc cells; eight mice", "value": "comparable"}, {"measurement": "volume of tumors after 10 days", "setting": "Sarc cells; eight mice, vehicle 330 +/− 163", "value": "185 +/− 82 mm^3"}, {"measurement": "circulating tumor cells in blood of CTC-positive mice", "setting": "Sarc cells; Alu Real-Time PCR, vehicle 10.04 +/− 3.7 in 8/8 mice", "value": "2.6 +/− 2.7 CTCs/mL"}]}]}
